Legend:
Experiment in all cases: relative viability (nuclei count vs DMSO), 5 days (fraction); higher = more cells survive
AT9283 = compound: O=C(Nc1c[nH]nc1-c1nc2ccc(CN3CCOCC3)cc2[nH]1)NC1CC1 [AT9283]
In short: (§1)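 After an overnight hold at 37 °C, lung cancer cell lines in 1536-well plates were pinned with five library-drug doses (not always all listed), each √10 from the next, on vehicle-anchored plates. The cells stayed 5 days without fresh medium, then a one-step fix, permeabilisation and Hoechst stain preceded 4× imaging and MetaXpress nuclear counts. A plate passed only with control CV under 25% and at least one doubling. Viability is the median, over plates, of treated-well nuclei relative to vehicle-well nuclei.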

Erlotinib = compound: C#Cc1cccc(Nc2ncnc3cc(OCCOC)c(OCCOC)cc23)c1 [Erlotinib]
In short: as §1

Phenformin = compound: N=C(N)NC(=N)NCCc1ccccc1 [Phenformin] (anchor plate); settings: 250 µM
In short: as §1

Erlotinib + Pictilisib = compound: C#Cc1cccc(Nc2ncnc3cc(OCCOC)c(OCCOC)cc23)c1 [Erlotinib] + CS(=O)(=O)N1CCN(Cc2cc3nc(-c4cccc5[nH]ncc45)nc(N4CCOCC4)c3s2)CC1 [Pictilisib] (partner 1 µM)
In short: (§2)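 Relative viability was taken as the ratio of nuclei in treated wells to nuclei in vehicle wells. Lung cancer cell lines in 1536-well plates received compounds by pin tool one day after seeding, either one drug alone or a fixed anchor-drug dose plus five library-drug doses (not always all listed) in √10 steps. Nuclei were counted on 4× images after 5 days of treatment, and values are medians of duplicate plates.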

Erlotinib + Crizotinib = compound: C#Cc1cccc(Nc2ncnc3cc(OCCOC)c(OCCOC)cc23)c1 [Erlotinib] + C[C@@H](Oc1cc(-c2cnn(C3CCNCC3)c2)cnc1N)c1c(Cl)ccc(F)c1Cl [Crizotinib] (partner 1 µM)
In short: as §2

Cell Line | relative viability (AT9283; 0.003 µM) | relative viability (AT9283; 0.03 µM) | relative viability (AT9283; 0.09487 µM) | relative viability (AT9283; 0.3 µM) | relative viability (Erlotinib; 0.02 µM) | relative viability (Erlotinib; 0.2 µM) | relative viability (Erlotinib; 0.6325 µM) | relative viability (Erlotinib; 2 µM) | relative viability (Phenformin) | relative viability (Erlotinib + Pictilisib; first compound 0.02 µM) | relative viability (Erlotinib + Pictilisib; first compound 0.2 µM) | relative viability (Erlotinib + Pictilisib; first compound 0.6325 µM) | relative viability (Erlotinib + Pictilisib; first compound 2 µM) | relative viability (Erlotinib + Crizotinib; first compound 0.02 µM) | relative viability (Erlotinib + Crizotinib; first compound 0.2 µM) | relative viability (Erlotinib + Crizotinib; first compound 0.6325 µM) | relative viability (Erlotinib + Crizotinib; first compound 2 µM)
A549 | 0.917 | 0.458 | 0.125 | 0.0647 | 0.918 | 0.936 | 0.963 | 0.879 | 0.165 | 0.471 | 0.529 | 0.582 | 0.406 | 0.799 | 0.796 | 0.792 | 0.551
RERF-LC-KJ | 0.986 | 0.667 | 0.431 | 0.27 | 0.947 | 0.879 | 0.871 | 0.716 | 0.42 | 0.579 | 0.412 | 0.376 | 0.307 | 0.85 | 0.837 | 0.781 | 0.645
NCI-H1755 | 1.02 | 1.01 | 0.617 | 0.639 | 1 | 1.02 | 1.06 | 0.935 | 0.626 | 0.422 | 0.456 | 0.416 | 0.374 | 0.889 | 0.888 | 0.904 | 
NCI-H596 | 0.935 | 0.955 | 0.909 | 0.539 | 0.992 | 0.861 | 0.933 | 0.91 | 0.733 | 0.383 | 0.478 | 0.383 | 0.351 | 0.952 | 0.961 | 1.02 | 0.828
NCI-H1734 | 0.925 | 0.47 | 0.336 | 0.27 | 1.02 | 0.869 | 0.996 | 0.934 | 0.42 | 0.494 | 0.474 | 0.542 |  | 0.644 | 0.653 | 0.753 | 0.654
NCI-H661 | 0.981 | 0.491 | 0.388 | 0.39 | 1 | 0.939 | 1.01 | 0.81 | 0.285 | 0.333 |  | 0.416 | 0.294 | 1.16 |  | 1.04 | 0.97
NCI-H2009 | 1.03 | 0.859 | 0.423 | 0.26 | 1.07 | 0.998 | 1.08 | 0.996 | 0.485 | 0.836 | 0.763 | 0.943 | 0.732 | 1.02 | 1.07 | 1.15 | 
LC-2-ad | 0.93 | 0.695 | 0.233 | 0.177 | 0.998 | 1.08 | 1.01 | 0.826 | 0.605 | 0.557 | 0.427 | 0.429 | 0.303 | 0.468 | 0.509 | 0.458 | 0.329
NCI-H2085 | 1 | 0.946 | 0.937 | 0.447 | 0.932 | 0.851 | 0.843 | 0.699 | 0.724 | 0.459 | 0.46 | 0.513 | 0.358 | 0.794 | 0.835 | 0.739 | 0.57
NCI-H650 | 0.835 | 0.883 | 0.633 | 0.204 | 0.827 | 0.974 | 1.06 | 0.806 | 0.464 | 0.963 | 0.942 | 0.904 | 0.936 | 0.735 | 0.803 | 0.903 | 0.662
EMC-BAC-2 | 0.907 | 0.463 | 0.319 | 0.221 | 0.743 | 1.04 | 1.1 | 0.979 | 0.558 | 0.543 | 0.535 | 0.542 | 0.47 | 0.806 | 0.68 | 0.83 | 0.63
NCI-H322M | 0.817 | 0.67 | 0.469 | 0.474 | 0.825 | 0.703 | 0.574 | 0.513 | 0.791 | 0.456 | 0.499 | 0.347 | 0.365 | 0.786 | 0.707 | 0.668 | 0.322
SK-MES-1 | 1.05 | 0.975 | 0.581 | 0.232 | 1.02 | 0.809 | 0.498 | 0.41 | 0.665 | 0.287 | 0.245 | 0.258 | 0.22 | 1.06 | 0.725 | 0.524 | 0.38
NCI-H727 | 0.98 | 0.746 | 0.502 | 0.406 | 0.924 | 0.768 | 0.844 | 0.769 | 0.578 | 0.456 | 0.344 | 0.346 | 0.339 | 0.736 | 0.725 | 0.574 | 0.552
NCI-H1650 | 0.933 | 0.788 | 0.447 | 0.3 | 0.739 | 0.756 | 0.838 | 0.671 | 0.465 | 0.483 |  | 0.578 | 0.47 | 0.85 | 0.721 | 0.924 | 0.643
NCI-H838 | 0.969 | 0.517 | 0.313 | 0.253 | 1 | 0.896 | 1.14 | 0.883 | 0.634 | 0.471 | 0.454 | 0.503 | 0.477 | 0.953 | 0.838 | 0.907 | 0.693
LXF-289 | 0.995 | 0.993 | 0.465 | 0.22 | 0.98 | 1.03 | 0.971 | 0.963 | 0.518 | 0.775 |  | 0.798 | 0.704 | 0.818 | 0.828 | 0.761 | 0.711
SW 1573 | 0.913 | 0.326 | 0.222 | 0.177 | 1.02 | 0.955 | 1.02 | 0.925 | 0.385 | 0.525 | 0.482 | 0.62 | 0.419 | 0.88 | 0.814 | 0.864 | 0.646
201T | 0.909 | 0.97 | 0.537 | 0.361 | 0.963 | 0.957 | 0.946 | 0.865 | 0.45 | 0.694 | 0.651 | 0.692 | 0.664 | 1 | 0.943 | 0.905 | 0.951
